US10472347B2, “Aminopyrazine compounds with A2A antagonist properties” (Merck Sharp & Dohme Corp., priority 2014, dated 2019)

target: T1, human A2a receptor (Homo sapiens, UniProt P29274); assay: A2a competition binding assay, Scintillation Proximity technology; conditions: membranes from HEK293 cells expressing human A2a receptor; Ki by Cheng-Prusoff equation
T1 construct: purchased Perkin-Elmer RBHA2AM400UA; host or cells: HEK293 cells (membranes)
In short: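 SPA competition: 0.5 nM tritiated pyrazolotriazolopyrimidine ligand displaced by compound at 3000 to 0.15 nM, 1 h room temperature, human A2a HEK293 membranes pretreated with adenosine deaminase, PBS/10 mM MgCl2 buffer. CGS15943 1 μM defined non-specific binding; EC50 converted to Ki via Cheng-Prusoff.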

T1 sequence (P29274 whole entry): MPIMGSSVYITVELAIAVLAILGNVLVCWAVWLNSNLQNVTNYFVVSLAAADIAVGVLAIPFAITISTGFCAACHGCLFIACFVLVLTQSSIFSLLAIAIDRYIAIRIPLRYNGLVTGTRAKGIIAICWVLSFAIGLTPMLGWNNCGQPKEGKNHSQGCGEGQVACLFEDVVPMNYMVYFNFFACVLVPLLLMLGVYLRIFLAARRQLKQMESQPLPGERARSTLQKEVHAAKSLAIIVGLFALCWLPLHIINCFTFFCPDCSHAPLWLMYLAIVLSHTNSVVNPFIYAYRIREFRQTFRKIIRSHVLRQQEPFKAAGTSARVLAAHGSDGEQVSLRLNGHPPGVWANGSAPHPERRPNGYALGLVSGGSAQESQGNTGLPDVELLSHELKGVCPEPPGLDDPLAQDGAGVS

Structure (SMILES) | Ki [nM]
Cc1cccnc1CNC(=O)c1nc(Cl)c(-n2nccn2)nc1N [Ex-282, 3-amino-6-chloro-N-[(3-methylpyridin-2-yl)methyl]-5-(2H-1,2,3-triazol-2-yl)pyrazine-2-carboxamide] | 1.4
COc1ccccc1CNC(=O)c1nc(Cl)c(-n2nccn2)nc1N [Ex-283, 3-amino-6-chloro-N-(2-methoxybenzyl)-5-(2H-1,2,3-triazol-2-yl)pyrazine-2-carboxamide] | 2.4
Nc1nc(-n2nccn2)c(Cl)nc1C(=O)NCc1ccccc1OC(F)(F)F [Ex-284] | 6.5
Nc1nc(-n2nccn2)c(Cl)nc1C(=O)N[C@@H](c1ccccc1)C(F)(F)F [Ex-286, 3-amino-6-chloro-5-(2H-1,2,3-triazol-2-yl)-N-[(1S)-2,2,2-trifluoro-1-phenylethyl]pyrazine-2-carboxamide] | 124
C[C@@H](NC(=O)c1nc(Cl)c(-n2nccn2)nc1N)c1ccc2ccccc2n1 [Ex-287, 3-amino-6-chloro-N-[(1R)-1-quinolin-2-ylethyl]-5-(2H-1,2,3-triazol-2-yl)pyrazine-2-carboxamide] | 131
Nc1nc(-n2nccn2)c(Cl)nc1C(=O)NCc1ccccc1Br [Ex-288, 3-amino-N-(2-bromobenzyl)-6-chloro-5-(2H-1,2,3-triazol-2-yl)pyrazine-2-carboxamide] | 1.9
Nc1nc(-n2nccn2)c(Cl)nc1C(=O)NCCc1ccccc1Br [Ex-289, 3-amino-N-[2-(2-bromophenyl)ethyl]-6-chloro-5-(2H-1,2,3-triazol-2-yl)pyrazine-2-carboxamide] | 34.8
CN(Cc1cccc2cccnc12)C(=O)c1nc(Cl)c(-n2nccn2)nc1N [Ex-290, 3-amino-6-chloro-N-methyl-N-(quinolin-8-ylmethyl)-5-(2H-1,2,3-triazol-2-yl)pyrazine-2-carboxamide] | 318
Nc1nc(-n2nccn2)c(Cl)nc1C(=O)N1CCc2cccc(Br)c2C1 [Ex-292, 3-[(8-bromo-3,4-dihydroisoquinolin-2(1H)-yl)carbonyl]-5-chloro-6-(2H-1,2,3-triazol-2-yl)pyrazin-2-amine] | 54.8
Nc1nc(-n2nccn2)c(Cl)nc1C(=O)NC1CCNc2ccccc21 (stereo not shown) [Ex-293, 3-amino-6-chloro-N-(1,2,3,4-tetrahydroquinolin-4-yl)-5-(2H-1,2,3-triazol-2-yl)pyrazine-2-carboxamide] | 107
COc1ccc(CCNC(=O)c2nc(Cl)c(-n3nccn3)nc2N)cc1OC [Ex-294, 3-amino-6-chloro-N-[2-(3,4-dimethoxyphenyl)ethyl]-5-(2H-1,2,3-triazol-2-yl)pyrazine-2-carboxamide] | 68.8
Nc1nc(-n2nccn2)c(Cl)nc1C(=O)NCc1cnn2ccccc12 [Ex-295, 3-amino-6-chloro-N-(pyrazolo[1,5-a]pyridin-3-ylmethyl)-5-(2H-1,2,3-triazol-2-yl)pyrazine-2-carboxamide] | 13.6
Nc1nc(-n2nccn2)c(Cl)nc1C(=O)NCc1cccc2cnccc12 [Ex-296, 3-amino-6-chloro-N-(isoquinolin-5-ylmethyl)-5-(2H-1,2,3-triazol-2-yl)pyrazine-2-carboxamide] | 35.6
Nc1nc(-n2nccn2)c(Cl)nc1C(=O)NCc1cccc2ccncc12 [Ex-297, 3-amino-6-chloro-N-(isoquinolin-8-ylmethyl)-5-(2H-1,2,3-triazol-2-yl)pyrazine-2-carboxamide] | 1.65
Nc1nc(-n2nccn2)c(Cl)nc1C(=O)NCc1nc2ccccc2s1 [Ex-298, 3-amino-N-(1,3-benzothiazol-2-ylmethyl)-6-chloro-5-(2H-1,2,3-triazol-2-yl)pyrazine-2-carboxamide] | 32.9
Nc1nc(-n2nccn2)c(Cl)nc1C(=O)NCc1nc2ccccc2o1 [Ex-299, 3-amino-N-(1,3-benzoxazol-2-ylmethyl)-6-chloro-5-(2H-1,2,3-triazol-2-yl)pyrazine-2-carboxamide] | 33.6
Nc1nc(-n2nccn2)c(Cl)nc1C(=O)NCc1cccc2nccnc12 [Ex-300, 3-amino-6-chloro-N-(quinoxalin-5-ylmethyl)-5-(2H-1,2,3-triazol-2-yl)pyrazine-2-carboxamide] | 44.4
Nc1nc(-n2nccn2)c(Cl)nc1C(=O)NCc1ccnc2ccccc12 [Ex-301, 3-amino-6-chloro-N-(quinolin-4-ylmethyl)-5-(2H-1,2,3-triazol-2-yl)pyrazine-2-carboxamide] | 182
Nc1nc(-n2nccn2)c(Cl)nc1C(=O)NCc1nc2ccccc2[nH]1 [Ex-302, 3-amino-N-(1H-benzimidazol-2-ylmethyl)-6-chloro-5-(2H-1,2,3-triazol-2-yl)pyrazine-2-carboxamide] | 28.3
Nc1ccccc1CNC(=O)c1nc(Cl)c(-n2nccn2)nc1N [Ex-303, 3-amino-N-(2-aminobenzyl)-6-chloro-5-(2H-1,2,3-triazol-2-yl)pyrazine-2-carboxamide] | 14.4
Nc1cccc(F)c1CNC(=O)c1nc(Cl)c(-n2nccn2)nc1N [Ex-304, 3-amino-N-(2-amino-6-fluorobenzyl)-6-chloro-5-(2H-1,2,3-triazol-2-yl)pyrazine-2-carboxamide] | 3.6
Nc1nc(-n2nccn2)c(Cl)nc1C(=O)NCc1cnc2ccccn12 [Ex-305, 3-amino-6-chloro-N-(imidazo[1,2-a]pyridin-3-ylmethyl)-5-(2H-1,2,3-triazol-2-yl)pyrazine-2-carboxamide] | 49.5
Nc1nc(-n2nccn2)c(Cl)nc1C(=O)NCc1ccc2ccccc2n1 [Ex-306, 3-amino-6-chloro-N-(quinolin-2-ylmethyl)-5-(2H-1,2,3-triazol-2-yl)pyrazine-2-carboxamide] | 48.6
Nc1nc(-n2nccn2)c(Cl)nc1C(=O)NCc1cc2ccccc2cn1 [Ex-307, 3-amino-6-chloro-N-(isoquinolin-3-ylmethyl)-5-(2H-1,2,3-triazol-2-yl)pyrazine-2-carboxamide] | 21.6
Nc1nc(-n2nccn2)c(Cl)nc1C(=O)NCc1cc2ccccc2[nH]1 [Ex-308, 3-amino-6-chloro-N-(1H-indol-2-ylmethyl)-5-(2H-1,2,3-triazol-2-yl)pyrazine-2-carboxamide] | 34.5
Nc1nc(-n2nccn2)c(Cl)nc1C(=O)NCc1cccc2ncccc12 [Ex-309, 3-amino-6-chloro-N-(quinolin-5-ylmethyl)-5-(2H-1,2,3-triazol-2-yl)pyrazine-2-carboxamide] | 180
Nc1nc(-n2nccn2)c(Cl)nc1C(=O)NCc1cn2ccsc2n1 [Ex-310, 3-amino-6-chloro-N-(imidazo[2,1-b][1,3]thiazol-6-ylmethyl)-5-(2H-1,2,3-triazol-2-yl)pyrazine-2-carboxamide] | 15.7

Next, values leading:

Ki [nM] | Structure (SMILES)
1160 | Nc1nc(-n2nccn2)c(Cl)nc1C(=O)NCCc1cnccn1 [Ex-311, 3-amino-6-chloro-N-(2-pyrazin-2-ylethyl)-5-(2H-1,2,3-triazol-2-yl)pyrazine-2-carboxamide]
607 | Nc1nc(-n2nccn2)c(Cl)nc1C(=O)N[C@@H](CO)c1ccccc1 [Ex-312, 3-amino-6-chloro-N-[(1R)-2-hydroxy-1-phenylethyl]-5-(2H-1,2,3-triazol-2-yl)pyrazine-2-carboxamide]
22.8 | Nc1nc(-n2nccn2)c(Cl)nc1C(=O)N[C@H](CO)c1ccccc1 [Ex-313, 3-amino-6-chloro-N-[(1S)-2-hydroxy-1-phenylethyl]-5-(2H-1,2,3-triazol-2-yl)pyrazine-2-carboxamide]
3.7 | Nc1nc(-n2nccn2)c(Cl)nc1C(=O)NCc1cccc2c1C(=O)NC2 [Ex-314, 3-amino-6-chloro-N-[(3-oxo-2,3-dihydro-1H-isoindol-4-yl)methyl]-5-(2H-1,2,3-triazol-2-yl)pyrazine-2-carboxamide]
195 | Nc1nc(-n2nccn2)c(Cl)nc1C(=O)NCCOc1ccccc1 [Ex-315, 3-amino-6-chloro-N-(2-phenoxyethyl)-5-(2H-1,2,3-triazol-2-yl)pyrazine-2-carboxamide]
66.9 | Nc1nc(-n2nccn2)c(Cl)nc1C(=O)N[C@@H]1C[C@@]1(F)c1ccccc1 [Ex-316, 3-amino-6-chloro-N-[(1R,2R)-2-fluoro-2-phenylcyclopropyl]-5-(2H-1,2,3-triazol-2-yl)pyrazine-2-carboxamide]
2200 | Nc1nc(-n2nccn2)c(Cl)nc1C(=O)N[C@H]1C[C@@]1(F)c1ccccc1 [Ex-317, 3-amino-6-chloro-N-[(1S,2R)-2-fluoro-2-phenylcyclopropyl]-5-(2H-1,2,3-triazol-2-yl)pyrazine-2-carboxamide]
317 | COC(=O)[C@@H](CO)NC(=O)c1nc(Cl)c(-n2nccn2)nc1N [Ex-318, methyl N-{[3-amino-6-chloro-5-(2H-1,2,3-triazol-2-yl)pyrazin-2-yl]carbonyl}-D-serinate]
77.9 | Nc1nc(-n2nccn2)c(Cl)nc1C(=O)NCC1CCCc2cccnc21 (stereo not shown) [Ex-319, 3-amino-6-chloro-N-(5,6,7,8-tetrahydroquinolin-8-ylmethyl)-5-(2H-1,2,3-triazol-2-yl)pyrazine-2-carboxamide]
149 | Nc1nc(-n2nccn2)c(Cl)nc1C(=O)N[C@H](CO)Cc1ccccc1 [Ex-320, 3-amino-N-[(1S)-1-benzyl-2-hydroxyethyl]-6-chloro-5-(2H-1,2,3-triazol-2-yl)pyrazine-2-carboxamide]
70.2 | Nc1nc(-n2nccn2)c(Cl)nc1C(=O)NCc1ncc[nH]1 [Ex-321, 3-amino-6-chloro-N-(1H-imidazol-2-ylmethyl)-5-(2H-1,2,3-triazol-2-yl)pyrazine-2-carboxamide]
61.9 | CN1CCC(NC(=O)c2nc(Cl)c(-n3nccn3)nc2N)c2ccccc21 (stereo not shown) [Ex-322, 3-amino-6-chloro-N-(1-methyl-1,2,3,4-tetrahydroquinolin-4-yl)-5-(2H-1,2,3-triazol-2-yl)pyrazine-2-carboxamide]
65.3 | COC(=O)[C@@H](NC(=O)c1nc(Cl)c(-n2nccn2)nc1N)c1ccccc1 [Ex-323, methyl (2S)-({[3-amino-6-chloro-5-(2H-1,2,3-triazol-2-yl)pyrazin-2-yl]carbonyl}amino) (phenyl)ethanoate]
